Source: paper PMC4819177, “The rational search for selective anticancer derivatives of the peptide Trichogin GA IV: a multi-technique biophysical approach” (Scientific Reports, 2016)
“Also recorded” adds a separate entry of the source. Square brackets hold non-standard residues; d marks the D form. Peptide text beside a SMILES is read from it. * marks the point of attachment. TOAC = CC1(C)CC(N)(C(=O)O)CC(C)(C)N1[O]; Leu(ol) = CC(C)C[C@H](N)CO; Octanoyl = CCCCCCCC(=O)*; Api = NC1(C(=O)O)CCNCC1; Aib = CC(C)(N)C(=O)O

Columns and labels:
[1] = tested on: T67 human glioma cell line; assay type: cell-based; settings: MTT, 24 h exposure; average error about ±2 μM
Protocol: (§1) We studied the effect of TG and its analogues on normal (HDF) and transformed (T67 and HeLa) cells. The cellular viability was assessed after 24 hours of exposure to the peptides by the MTT assay (Table 1).
(§2) Culture media, foetal bovine serum (FBS) and antibiotics were purchased from Carlo Erba Dasit Group. The T67 human glioma cell line was derived by Lauro et al.[49] from a World Health Organization (WHO) Grade III gemistocytic astrocytoma. Human dermal fibroblasts (HDF) were obtained by ATCC. HDF were cultured in Fibroblast Basal Medium (ATCC) supplemented with 10% FBS. T67 and HeLa cells were cultured in Dulbecco’s modified Eagle’s medium (MMedical) supplemented with 10% FBS, 100 UI/ml penicillin, 100 μg/ml streptomycin, and 40 μg/ml gentamycin, and kept in a 5% CO2 atmosphere at 37 °C, with saturating humidity. Cell viability and number were measured by trypan blue exclusion method.
(§3) Cytotoxicity of peptides was estimated using a MTT assay. All the chemicals used for this assay have been purchased by sigma Aldrich and used without further purification. T67, HeLa and HDF cells were seeded in 24-well plates at 1 × 10^5 cells/well. Experiments were performed after 24 h of incubation at 37 °C in 5% CO2. After this time cells were washed and treated for 24 h with different concentrations of peptides; the cells are then incubated for 60 mins with 300 μM of MTT in culture medium. The absorbance of each well was measured at 450 nm with a spectrofluorometer (Wallac Victor multilabel counter; Perkin-Elmer Inc., Boston, MA, USA). Data are reported as the mean ± standard deviation of at least three independent experiments.

[2] = tested on: human dermal fibroblasts (HDF); assay type: cell-based; settings: MTT, 24 h exposure; average error about ±2 μM
Protocol: as §1, §2, §3

HeLa cells [3] = assay type: cell-based, human; settings: MTT, 24 h exposure; average error about ±2 μM
Protocol: as §1, §2, §3

[4] = Dynamic light scattering of POPC SUV with peptides; assay type: physicochemical; settings: POPC SUV 2 mM, P:L 1:100
Protocol: The dimension of the SUV prepared by sonication was verified by dynamic light scattering (DLS). Additionally we checked if the peptides at a P:L ratio 1:100, the ratio used for EPR experiments, alter the dimension of the SUV. The experiments were perfomed on POPC SUV (2 mM) with and without peptides. We chose a toxic peptide, [Arg^2] TG, and a non-toxic peptide, [Leu^4] TG. The average diameter of the SUV in this preparation is about 21±6 nm (when counting the size distribution by numer).

T67, HeLa and HDF cells = assay: MTT cytotoxicity assay, summary over the three cell lines; assay type: cell-based, human; settings: 24 h
Protocol: as §1, §3

HeLa cells [5] = assay: Fluorescence microscopy of FITC-labelled peptides; assay type: cell-based, human; settings: 0.5 μM, 3 hours; for state of the cells / membrane lysis: bright field; for cellular localization of the fluorescent label: green fluorescence
Protocol: HeLa cells were treated for 3 hours with 0.5 μM of TG and [Lys^6] […] The cells treated with [FITC^11] […] Conversely, treatment with [Lys^6, FITC^11] […] It has been shown that some AMP act not on the plasma membrane, but on the mitochondria.
HeLa cells were washed with PBS (NaCl 137 mM, KCl 2.7 mM, Na2HPO4 10 mM, KH2PO4 1.8 mM, pH 7.4), detached with 0.05% trypsin–EDTA solution and centrifuged for 3 min at 300 × g. The pellet was resuspended in DMEM medium and cells were counted by using trypan blue exclusion method. Then, 5 × 10^3 cells were seeded on custom chambers[58] with glass bottom, in 100 μL of complete DMEM medium and incubated at 37 °C in a humidified atmosphere with 5% CO2. After 24 h, cells were washed with PBS and incubated for 3 hours with […] of [FITC^11] TG and [Lys^6, FITC^11] TG dissolved in DMEM. After this time, cells were carefully washed with PBS, then 50 μL of PBS supplemented with calcium and magnesium (NaCl 137 mM, KCl 2.7 mM, Na2HPO4 10 mM, KH2PO4 1.8 mM, CaCl2 1 mM, MgCl2 0.5 mM, pH 7.4) was added to each chamber. Finally, chambers were mounted on the microscope stage for analysis. Micrographs were acquired on a Zeiss Axiovert 200 inverted microscope equipped with XBO xenon 75 W short arc lamp and a Photometrics Coolsnap FX CCD camera (Roper Scientific) with Metafluor Imaging Software version 6.1r6 (Universal Imaging Inc.) at λexc = 500 nm, λem = 545 nm.
We performed fluorescence microscopy experiments with rhodamine, which selectively stains mitochondria, to exclude that TG analogs penetrate inside the mitochondria and are localized only on the plasmatic membrane. Rhodamine staining is shown in FigureS5.B in red. The merged images of the experiments on [FITC^11]

Row | Compound | EC50 [1] [µM] | EC50 [2] [µM] | EC50 (HeLa cells [3]) [µM] | further results
1 | Oct-UGLLGGLUGI-Lol [[Leu^4] TG] | > 20 | > 20 | > 20 | DLS Distribution by Number Peak 1, diameter [4]: 20 nm; DLS Distribution by Number Peak 1, fraction [4]: 100%; DLS Distribution by Volume Peak 1, diameter [4]: 30 nm; DLS Distribution by Volume Peak 1, fraction [4]: 96%; DLS Distribution by Volume Peak 2, diameter [4]: 4993 nm; DLS Distribution by Volume Peak 2, fraction [4]: 4%; effect of peptide on the dimension of the vesicles [4]: does not alter the dimension of the vesicles in a significant way
2 | CCCCCCCC(=O)NC(C)(C)C(=O)N[C@@H](CCCNC(=N)N)C(=O)N[C@@H](CC(C)C)C(=O)NC(C)(C)C(=O)NCC(=O)NCC(=O)N[C@@H](CC(C)C)C(=O)NC(C)(C)C(=O)NCC(=O)N[C@H](C(=O)N[C@H](CO)CC(C)C)[C@@H](C)CC [[Arg^2] TG, Oct-URLUGGLUGI-Lol] (Octanoyl-[Aib]RL[Aib]GGL[Aib]GI[Leu(ol)]) | 8 | 8 | 4 | DLS Distribution by Number Peak 1, diameter [4]: 24 nm; DLS Distribution by Number Peak 1, fraction [4]: 100%; DLS Distribution by Volume Peak 1, diameter [4]: 28 nm; DLS Distribution by Volume Peak 1, fraction [4]: 92%; DLS Distribution by Volume Peak 2, diameter [4]: 5430 nm; DLS Distribution by Volume Peak 2, fraction [4]: 3%; DLS Distribution by Volume Peak 3, diameter [4]: 135 nm; DLS Distribution by Volume Peak 3, fraction [4]: 5%; effect of peptide on the dimension of the vesicles [4]: does not alter the dimension of the vesicles in a significant way
3 | CCCCCCCC(=O)NC(C)(C)C(=O)NCC(=O)N[C@@H](CC(C)C)C(=O)NC(C)(C)C(=O)NCC(=O)NCC(=O)N[C@@H](CC(C)C)C(=O)NC(C)(C)C(=O)NCC(=O)N[C@H](C(=O)N[C@H](CO)CC(C)C)[C@@H](C)CC [TG, 1-Oct-Aib-Gly-Leu-Aib-Gly-Gly-Leu-Aib-Gly-Ile-Lol, reference compound] (Octanoyl-[Aib]GL[Aib]GGL[Aib]GI[Leu(ol)]) | 2 | 4 | 8 | 
4 | CCCCCCCC(=O)NC(C)(C)C(=O)NCC(=O)N[C@@H](CC(C)C)C(=O)NC(C)(C)C(=O)NCC(=O)NCC(=O)N[C@@H](CC(C)C)C(=O)NC1(C(=O)NCC(=O)N[C@H](C(=O)N[C@H](CO)CC(C)C)[C@@H](C)CC)CCNCC1 [[Api^8] TG, Oct-UGLUGGLZGI-Lol] (Octanoyl-[Aib]GL[Aib]GGL[Api]GI[Leu(ol)]) |  | > 20 | > 20 | cytotoxicity / selectivity in words (T67, HeLa and HDF cells): selective cytotoxicity towards a cancer cell line
5 | Oct-UGLUGKLUGIL- FITC [[Lys^6, FITC^11] TG] |  |  |  | state of the cells / membrane lysis (HeLa cells [5]): severe membrane lysis; cellular localization of the fluorescent label (HeLa cells [5]): mainly located in the outer plasma membrane
6 | CCCCCCCC(=O)NC1(C(=O)NCC(=O)N[C@@H](CC(C)C)C(=O)NC(C)(C)C(=O)NCC(=O)N[C@@H](CCCCN)C(=O)N[C@@H](CC(C)C)C(=O)NC(C)(C)C(=O)NCC(=O)N[C@H](C(=O)N[C@H](CO)CC(C)C)[C@@H](C)CC)CC(C)(C)N([O])C(C)(C)C1 [[TOAC^1, Lys^6] TG, Oct-XGLUGKLUGI-Lol] | 1 | 5 | 3 | cytotoxicity / selectivity in words (T67, HeLa and HDF cells): most toxic peptide on all the cell lines
7 | CCCCCCCC(=O)NC1(C(=O)NCC(=O)N[C@@H](CC(C)C)C(=O)N[C@@H](CC(C)C)C(=O)NCC(=O)NCC(=O)N[C@@H](CC(C)C)C(=O)NC(C)(C)C(=O)NCC(=O)N[C@H](C(=O)N[C@H](CO)CC(C)C)[C@@H](C)CC)CC(C)(C)N([O])C(C)(C)C1 [[TOAC^1, Leu^4] TG, Oct-XGLLGGLUGI-Lol] (Octanoyl-[TOAC]GLLGGL[Aib]GI[Leu(ol)]) |  |  |  | cytotoxicity / selectivity in words (T67, HeLa and HDF cells): no toxicity
8 | CCCCCCCC(=O)NC1(C(=O)NCC(=O)N[C@@H](CC(C)C)C(=O)NC(C)(C)C(=O)N[C@@H](CCCCN)C(=O)N[C@@H](CCCCN)C(=O)N[C@@H](CC(C)C)C(=O)NC(C)(C)C(=O)NCC(=O)N[C@H](C(=O)N[C@H](CO)CC(C)C)[C@@H](C)CC)CC(C)(C)N([O])C(C)(C)C1 [[TOAC^1, Lys^5,6] TG, Oct-XGLUKKLUGI-Lol] | 10 | 15 | 6 | 
9 | CCCCCCCC(=O)NC1(C(=O)NCC(=O)N[C@@H](CC(C)C)C(=O)NC(C)(C)C(=O)NCC(=O)NCC(=O)N[C@@H](CC(C)C)C(=O)NC(C)(C)C(=O)N[C@@H](CCCNC(=N)N)C(=O)N[C@H](C(=O)N[C@H](CO)CC(C)C)[C@@H](C)CC)CC(C)(C)N([O])C(C)(C)C1 [[TOAC^1, Arg^9] TG, Oct-XGLUGGLURI-Lol] (Octanoyl-[TOAC]GL[Aib]GGL[Aib]RI[Leu(ol)]) | 8 | 8 | 5 | 
10 | Oct-XGLUGGLLGI-Lol [[TOAC^1, Leu^8] TG] | > 20 | > 20 | > 20 | 
11 | CCCCCCCC(=O)NC(C)(C)C(=O)NCC(=O)N[C@@H](CC(C)C)C(=O)NC(C)(C)C(=O)NCC(=O)N[C@@H](CCCCN)C(=O)N[C@@H](CC(C)C)C(=O)NC(C)(C)C(=O)NCC(=O)N[C@H](C(=O)N[C@H](CO)CC(C)C)[C@@H](C)CC [[Lys^6] TG, Oct-UGLUGKLUGI-Lol] | 4 | 2 | 2 | 
12 | CCCCCCCC(=O)NC1(C(=O)N[C@@H](CCCNC(=N)N)C(=O)N[C@@H](CC(C)C)C(=O)NC(C)(C)C(=O)NCC(=O)NCC(=O)N[C@@H](CC(C)C)C(=O)NC(C)(C)C(=O)NCC(=O)N[C@H](C(=O)N[C@H](CO)CC(C)C)[C@@H](C)CC)CC(C)(C)N([O])C(C)(C)C1 [[TOAC^1, Arg^2] TG, Oct-XRLUGGLUGI-Lol] (Octanoyl-[TOAC]RL[Aib]GGL[Aib]GI[Leu(ol)]) | 8 | 15 | 9 | 
13 | Oct-UGLUGGLUGIL-FITC [[FITC^11] TG] |  |  |  | state of the cells / membrane lysis (HeLa cells [5]): keeps the cells intact; also recorded: largely intact; cellular localization of the fluorescent label (HeLa cells [5]): mainly located in the outer plasma membrane; colocalization with rhodamine (mitochondria) (HeLa cells [5]; rhodamine staining): no significant colocalization
